Test results: US20150080305A1, “APPLICATION OF INITIAL DOSES OF LHRH ANALOGUES AND MAINTENANCE DOSES OF LHRH ANTAGONISTS FOR THE TREATMENT OF HORMONE-DEPENDENT CANCERS AND CORRESPONDING PHARMACEUTICAL KITS” (AETERNA ZENTARIS GmbH, priority 2006, published 2015)
Square brackets hold non-standard residues; d marks the D form. Peptide text beside a SMILES is read from it. dPhe(4-Cl) = N[C@H](Cc1ccc(Cl)cc1)C(=O)O; d2Nal = N[C@H](Cc1ccc2ccccc2c1)C(=O)O; dCit = NC(=O)NCCC[C@@H](N)C(=O)O; d3Pal = N[C@H](Cc1cccnc1)C(=O)O

Key:
hormone concentration = settings: volunteer tests; cited from earlier work
testosterone levels = experiment: Testosterone levels in prostate cancer patients under initial/maintenance dose regimen; type: in vivo, human; settings: for testosterone levels during first period: prostate cancer patients
Method: (§1) 130 mg ozarelix is given as a single monthly initial dose per i.m. injection every 4 weeks to patients suffering from prostate cancer for a first period of 3 months. […] Subsequently, patients are treated with single monthly maintenance doses of 30 mg ozarelix given per i.m. injection over a period of 6 months. […] The treatment scheme is then repeated continuously (chronic treatment).
(§2) 00 mg ozarelix is given as a single initial dose per i.m. injection once every 3 months to patients suffering from prostate cancer for a first period of 3 to 6 months. […] Subsequently, patients are treated with single monthly maintenance doses of 40 mg ozarelix given per i.m. injection over a period of 6 months. […] The treatment scheme is then repeated continuously (chronic treatment).
as §1, with “3.75” for “130”, “leuprorelin (leuprolide) are” for “ozarelix is”, “6” for “3”, “20” for “30”, “9” for “6”
as §2, with “11.25” for “00”, “leuprorelin (leuprolide) are” for “ozarelix is”, “three” for “3”, “3” for “3 to 6”, “50” for “40”, “3” for “6”

PSA levels = PSA levels in prostate cancer patients under initial/maintenance dose regimen; type: in vivo, human; settings: for PSA levels decrease during first period: prostate cancer patients
Method: as §1, §2
as §1, with “3.75” for “130”, “leuprorelin (leuprolide) are” for “ozarelix is”, “6” for “3”, “20” for “30”, “9” for “6”
as §2, with “11.25” for “00”, “leuprorelin (leuprolide) are” for “ozarelix is”, “three” for “3”, “3” for “3 to 6”, “50” for “40”, “3” for “6”

[1] = Example 3: 3.75 mg single monthly initial dose i.m. every 4 weeks, first period of 6 months
[2] = Example 4: 11.25 mg single initial dose i.m. once every three months, first period of 3 months
[3] = Example 1: 130 mg single monthly initial dose i.m. every 4 weeks, first period of 3 months
[4] = Example 1: single monthly maintenance doses of 30 mg i.m. over 6 months, after 130 mg ozarelix initial doses
[5] = Example 2: 00 mg single initial dose i.m. once every 3 months, first period of 3 to 6 months
[6] = Example 2: single monthly maintenance doses of 40 mg i.m. over 6 months, after ozarelix initial doses
[7] = Example 3: single monthly maintenance doses of 20 mg i.m. over 9 months, after 3.75 mg leuprorelin initial doses
[8] = Example 4: single monthly maintenance doses of 50 mg i.m. over 3 months, after 11.25 mg leuprorelin initial dose

In the case of CC(=O)N[C@H](Cc1ccc2ccccc2c1)C(=O)N[C@H](Cc1ccc(Cl)cc1)C(=O)N[C@H](Cc1cccnc1)C(=O)N[C@@H](CO)C(=O)N[C@@H](Cc1ccc(O)cc1)C(=O)N[C@H](CCCNC(N)=O)C(=O)N[C@@H](CC(C)C)C(=O)N[C@@H](CCCNC(=N)N)C(=O)N1CCC[C@H]1C(=O)N[C@H](C)C(N)=O [cetrorelix] (Ac-[d2Nal][dPhe(4-Cl)][d3Pal]SY[dCit]LRP[dA]-NH2), the “dose necessary for complete suppression of the hormone concentration to castration level” value (hormone concentration) is given as 10 mg daily.
For CCNC(=O)[C@@H]1CCCN1C(=O)[C@H](CCCNC(=N)N)NC(=O)[C@H](CC(C)C)NC(=O)[C@@H](CC(C)C)NC(=O)[C@H](Cc1ccc(O)cc1)NC(=O)[C@H](CO)NC(=O)[C@H](Cc1c[nH]c2ccccc12)NC(=O)[C@H](Cc1c[nH]cn1)NC(=O)[C@@H]1CCC(=O)N1 [leuprorelin, reference compound], the “testosterone levels during first period” value (testosterone levels; [1]) was “quickly reach castration level”, the “testosterone levels during first period” value (testosterone levels; [2]) was “quickly reach castration level” and the “PSA levels decrease during first period” value (PSA levels; [1]) was “up to 95%”. The “PSA levels decrease during first period” value (PSA levels; [2]) was “up to 95%”.
In the case of ozarelix, the “testosterone levels during first period” value (testosterone levels; [3]) is reported as “quickly reach castration level”, the “testosterone levels during second period” value (testosterone levels; [4]) is reported as “above 0.5 ng/mL” and the “testosterone levels during first period” value (testosterone levels; [5]) is reported as “quickly reach castration level”. The “testosterone levels during second period” value (testosterone levels; [6]) was “above 0.5 ng/mL”, the “testosterone levels during second period” value (testosterone levels; [7]) was “above 0.5 ng/mL” and the “testosterone levels during second period” value (testosterone levels; [8]) was “above 0.5 ng/mL”. For the same compound, the “PSA levels decrease during first period” value (PSA levels; [3]) was “up to 95%”, the “PSA levels during second period” value (PSA levels; [4]) was “remain stably low” and the “PSA levels decrease during first period” value (PSA levels; [5]) was “up to 95%”. The “PSA levels during second period” value (PSA levels; [6]) was “remain stably low”, the “PSA levels during second period” value (PSA levels; [7]) was “remain stably low” and the “PSA levels during second period” value (PSA levels; [8]) was “remain stably low”.
